≈ marks a conversion by molar mass, not a printed value. Like-named read-outs stand apart in the source and are kept apart here.
What was measured:
CHI Log D procedure = assay type: physicochemical; settings: for chromatographic logD: pH 7.4, CHI Log D; for CHI Log D: pH 7.4
Solubility in PBS = assay type: physicochemical
In short: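 Read-out is the HPLC peak area of the supernatant from ultracentrifuged PBS solution, scaled against a 50 μM peptide DMSO injection; value reported as [(PBS area)/(DMSO area)]*50 uM.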

[1] = molecular target: T1, full-length beta-Catenin (Uniprot ID P35222) (Homo sapiens, UniProt P35222); assay: Fluorescence polarization IC50 (beta-catenin / 5FAM-TCF4 10-53 competition); assay type: binding
T1 construct: 10 nM full-length beta-Catenin (Uniprot ID P35222)
T1 sequence (P35222 1-781): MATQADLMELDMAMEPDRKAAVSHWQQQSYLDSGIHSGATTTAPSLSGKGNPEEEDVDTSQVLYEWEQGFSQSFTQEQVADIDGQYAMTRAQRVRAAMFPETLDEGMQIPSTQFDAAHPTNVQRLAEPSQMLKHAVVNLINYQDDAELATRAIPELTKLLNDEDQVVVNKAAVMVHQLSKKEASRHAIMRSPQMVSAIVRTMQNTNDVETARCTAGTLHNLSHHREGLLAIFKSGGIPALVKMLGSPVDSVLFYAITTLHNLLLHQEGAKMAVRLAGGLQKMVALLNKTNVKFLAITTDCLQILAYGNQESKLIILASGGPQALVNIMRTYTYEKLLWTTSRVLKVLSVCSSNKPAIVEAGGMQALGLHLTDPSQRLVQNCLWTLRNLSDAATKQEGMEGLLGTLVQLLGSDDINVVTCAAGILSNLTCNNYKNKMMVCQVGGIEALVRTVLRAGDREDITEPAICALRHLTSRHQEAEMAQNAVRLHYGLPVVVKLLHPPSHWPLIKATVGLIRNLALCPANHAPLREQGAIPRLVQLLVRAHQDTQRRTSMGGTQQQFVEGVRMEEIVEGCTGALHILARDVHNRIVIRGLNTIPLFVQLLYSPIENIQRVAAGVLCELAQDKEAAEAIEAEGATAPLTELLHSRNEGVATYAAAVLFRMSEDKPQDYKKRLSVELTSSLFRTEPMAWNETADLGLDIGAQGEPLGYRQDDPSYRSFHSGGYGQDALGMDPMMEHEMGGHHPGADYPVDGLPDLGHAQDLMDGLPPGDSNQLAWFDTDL

[2] = molecular target: T2, beta-catenin/TCF4 engagement (Homo sapiens, UniProt P35222); assay: Nano-BRET target engagement assay (B-cat-Halo & TCF4-Luc in HEK293 cells); assay type: cell-based; settings: read-out: NanoBRET Abs IC50
T2 construct: expressed in transfected cells; host or cells: HEK293
T2 sequence (P35222 1-781): T1 sequence (P35222 1-781)

[3] = fluorescence polarization, read-out: beta-Catenin FP IC50

Row | Structure (SMILES) | chromatographic logD (CHI Log D procedure) | Solubility (Solubility in PBS; Solubility (uM)) | IC50 ([1]; read-out: beta-Catenin FP IC50) | IC50 [2] | CHI Log D (CHI Log D procedure) | Solubility (Solubility in PBS) | IC50 [1, 3] | IC50 ([1]; read-out: FP EC50) | IC50 ([2]; absolute IC50)
1 | CC(=O)N1CCC[C@]12CC=CCCCC1(CCCC=CCCCOC(=O)N3CC[C@@](C(=O)N[C@@H](Cc4ccsc4)C(=O)N[C@@H](Cc4csc5ccccc45)C(=O)N[C@@H](CC(N)=O)C(=O)N[C@H](C)C(N)=O)(C3)NC(=O)[C@H](CC(N)=O)NC(=O)[C@H](Cc3ccccc3)NC(=O)[C@H](C)NC(=O)[C@H](C)NC(=O)[C@H](CC(=O)O)NC(=O)[C@H](CC(=O)O)NC1=O)NC(=O)[C@H](CC(C)(C)C)NC(=O)[C@H](CC(=O)O)NC2=O (stereo partly drawn) [I-824, Ac-PL3-Asp-Npg-B5-Asp-Asp-Ala-Ala-Phe-Asn-PyrS2-3Thi-BztA-Asn-dAla-NH2] | 2.06 | 36 µM (≈ 71.1 µg/mL) | 7 nM | 14700 nM |  |  |  |  | 
2 | CC(=O)N1CCC[C@]12CC=CCCCC1(CCCC=CCCCCCC[C@@](C)(C(=O)N[C@@H](Cc3ccsc3)C(=O)N[C@@H](Cc3csc4ccccc34)C(=O)N[C@@H](CCC(N)=O)C(N)=O)NC(=O)[C@H](CC(N)=O)NC(=O)[C@H](Cc3ccccc3)NC(=O)[C@H](C)NC(=O)[C@H](C)NC(=O)[C@H](CC(=O)O)NC(=O)[C@H](CC(=O)O)NC1=O)NC(=O)[C@H](CC(C)C)NC(=O)[C@H](CC(=O)O)NC2=O (stereo partly drawn) [I-680, Ac-PL3-Asp-Leu-B5-Asp-Asp-Ala-Ala-Phe-Asn-S8-3Thi-BztA-Gln-NH2] |  |  |  |  | 2.215 | 47 µM (≈ 87.5 µg/mL) | 32 nM | 32 nM | 34400 nM
3 | CC(=O)N1CCC[C@]12CC=CCCCC1(CCCC=CCCCOC(=O)N3CC[C@@](C(=O)N[C@@H](Cc4ccsc4)C(=O)N[C@@H](Cc4csc5ccccc45)C(=O)N[C@@H](CCC(N)=O)C(N)=O)(C3)NC(=O)[C@H](CC(N)=O)NC(=O)[C@H](Cc3ccccc3)NC(=O)[C@H](C)NC(=O)[C@H](C)NC(=O)[C@H](CCC(N)=O)NC(=O)[C@H](CC(=O)O)NC1=O)NC(=O)[C@H](CC(C)(C)C)NC(=O)[C@H](CC(=O)O)NC2=O (stereo partly drawn) [I-838, Ac-PL3-Asp-Npg-B5-Asp-Gln-Ala-Ala-Phe-Asn-PyrS2-3Thi-BztA-Gln-NH2] | 2.19 | 41 µM (≈ 79.2 µg/mL) | 12 nM |  |  |  |  |  | 17400 nM
4 | CC(=O)N1CCC[C@]12CC=CCCCC1(CCCC=CCCCOC(=O)N3CC[C@@](C(=O)N[C@@H](Cc4ccsc4)C(=O)N[C@@H](Cc4csc5ccccc45)C(=O)N[C@@H](CCC(N)=O)C(N)=O)(C3)NC(=O)[C@H](CC(N)=O)NC(=O)[C@H](Cc3ccccc3)NC(=O)[C@H](CCCCNC(=O)CN3CCOCC3)NC(=O)[C@H](C)NC(=O)[C@H](CC(=O)O)NC(=O)[C@H](CC(=O)O)NC1=O)NC(=O)[C@H](CC(C)(C)C)NC(=O)[C@H](CC(=O)O)NC2=O (stereo partly drawn) [I-886, Ac-PL3-Asp-Npg-B5-Asp-Asp-Ala-[MorphAc]Lys-Phe-Asn-PyrS2-3Thi-BztA-Gln-NH2] | 1.51 | 43 µM (≈ 90.4 µg/mL) | 22 nM | > 20000 nM |  |  |  |  | 
5 | CC(=O)N1CCC[C@]12CC=CCCCC1(CCCC=CCCCOC(=O)N3CC[C@@](C(=O)N[C@@H](Cc4ccccc4Cl)C(=O)N[C@@H](Cc4csc5ccccc45)C(=O)N[C@@H](CCC(N)=O)C(N)=O)(C3)NC(=O)[C@H](CO)NC(=O)[C@H](Cc3cccc(C(F)(F)F)c3)NC(=O)[C@H](C)NC(=O)[C@H](C)NC(=O)[C@H](CC(=O)O)NC(=O)[C@H](CC(=O)O)NC1=O)NC(=O)[C@H](CC1CCCCC1)NC(=O)[C@H](CC(=O)O)NC2=O (stereo partly drawn) [I-1119, Ac-PL3-Asp-Cha-B5-Asp-Asp-Ala-Ala-3F3MeF-Ser-PyrS2-2C1F-BztA-Gln-NH2] | 2.51 | 31 µM (≈ 62.4 µg/mL) | 26 nM | 19400 nM |  |  |  |  | 
6 | CC(=O)N1CCC[C@]12CC=CCCCC1(CCCC=CCCCCCC[C@@](C)(C(=O)N[C@@H](Cc3ccccc3)C(=O)N[C@@H](Cc3csc4ccccc34)C(N)=O)NC(=O)[C@H](CCCNC(N)=O)NC(=O)[C@H](Cc3ccccc3)NC(=O)[C@H](C)NC(=O)[C@H](C)NC(=O)[C@H](CCC(=O)O)NC(=O)[C@H](CC(=O)O)NC1=O)NC(=O)[C@H](CC(C)C)NC(=O)[C@H](CC(=O)O)NC2=O (stereo partly drawn) [I-629, Ac-PL3-Asp-Leu-B5-Asp-Glu-Ala-Ala-Phe-Cit-S8-Phe-BztA-NH2] |  |  |  |  | 3.109 | 40 µM (≈ 71.4 µg/mL) | 36 nM | 685 nM | 30000 nM

Source: patent US20240116985A1, “STAPLED PEPTIDES AND METHODS THEREOF” (priority 2020, published 2024)
